For one data set, the target named is ALK3/BMPR1A (Homo sapiens, UniProt P36894). As to the kind of experiment: Kinase assay (33P-ATP filter-binding), ALK3. It is filed as biochemical. Particulars: 1 mM; read-out: Kinase Selectivity ALK3/BMPR1A (1 mM). The procedure, abridged:
(§1)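 Each kinase is added to substrate in buffered solution (20 mM Hepes pH 7.5, 10 mM MgCl2, 2 mM DTT, 1% DMSO), then compound is dispensed and left 20 minutes at room temperature. Radiolabelled ATP initiates a 2-hour room-temperature reaction, measured by P81 filter binding.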

In the next data set the target is T1, ALK5 (Homo sapiens, UniProt P36897).
T1 sequence (P36897 34-503): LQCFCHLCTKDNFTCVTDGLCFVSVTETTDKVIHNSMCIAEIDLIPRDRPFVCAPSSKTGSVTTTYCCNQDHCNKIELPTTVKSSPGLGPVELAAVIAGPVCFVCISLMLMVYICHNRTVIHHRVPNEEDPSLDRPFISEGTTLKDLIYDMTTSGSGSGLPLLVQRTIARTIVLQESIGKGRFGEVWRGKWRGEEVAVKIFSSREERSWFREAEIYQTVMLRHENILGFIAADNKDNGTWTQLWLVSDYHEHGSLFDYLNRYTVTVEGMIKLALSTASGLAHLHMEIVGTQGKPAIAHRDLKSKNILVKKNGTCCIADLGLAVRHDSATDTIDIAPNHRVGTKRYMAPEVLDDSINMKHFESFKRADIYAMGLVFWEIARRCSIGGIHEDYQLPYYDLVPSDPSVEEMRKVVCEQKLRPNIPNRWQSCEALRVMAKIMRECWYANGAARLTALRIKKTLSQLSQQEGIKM
As to the kind of experiment: Kinase assay (33P-ATP filter-binding), ALK5. It is filed as biochemical. Conditions: read-out: Kinase Selectivity ALK5. The method, then: (§2) The kinase assays were carried out briefly as follows. Substrate was prepared in Base Reaction Buffer (20 mM Hepes (pH 7.5), 10 mM MgCl2, 1 mM EGTA, 0.02% Brij35, 0.02 mg/ml BSA, 0.1 mM Na3VO4, 2 mM DTT, 1% DMSO). The indicated kinases was delivered into the substrate solution and allowed to gently mix. Next, the specific compound was delivered in DMSO into the kinase mixture by Acoustic technology (Echo550; nanoliter range), and allowed to incubate for 20 minutes at room temperature. Next, ^33P-ATP was delivered into the reaction mixture to initiate the reaction and allowed to incubate at room temperature. After 2 hours, the reactions were spotted onto P81 ion exchange paper and the kinase activity is detected by the filter-binding method.

The nature of data set [1]: Intrinsic clearance, mouse. Type of data set: in vitro ADME. Particulars: mouse.
Data set [2] can be described thus: Intrinsic clearance, human. It is filed as in vitro ADME. Conditions: human.
For data set [3], the system named is BMP-responsive C2C12 mouse myoblast cells stimulated with BMP4. The data set can be described thus: BMP4 cell assay (Id1 promoter-firefly luciferase reporter). It is filed as cell-based. Particulars: Mus musculus; C2C12 cells, BMP4 50 ng/mL, overnight.
Another data set has as its target ALK6 (Homo sapiens, UniProt O00238). The data set can be described thus: Kinase assay (33P-ATP filter-binding), ALK6. Type of data set: biochemical. Particulars: read-out: Kinase Selectivity ALK6. Here is the method: as §2
The target in a further data set is KDR (Homo sapiens, UniProt P35968). As to the kind of experiment: Kinase assay (33P-ATP filter-binding), KDR. It is filed as biochemical. Conditions: read-out: Kinase Selectivity KDR. The method, then: as §2
Sequence of KDR (P35968 20-1356, species assumed): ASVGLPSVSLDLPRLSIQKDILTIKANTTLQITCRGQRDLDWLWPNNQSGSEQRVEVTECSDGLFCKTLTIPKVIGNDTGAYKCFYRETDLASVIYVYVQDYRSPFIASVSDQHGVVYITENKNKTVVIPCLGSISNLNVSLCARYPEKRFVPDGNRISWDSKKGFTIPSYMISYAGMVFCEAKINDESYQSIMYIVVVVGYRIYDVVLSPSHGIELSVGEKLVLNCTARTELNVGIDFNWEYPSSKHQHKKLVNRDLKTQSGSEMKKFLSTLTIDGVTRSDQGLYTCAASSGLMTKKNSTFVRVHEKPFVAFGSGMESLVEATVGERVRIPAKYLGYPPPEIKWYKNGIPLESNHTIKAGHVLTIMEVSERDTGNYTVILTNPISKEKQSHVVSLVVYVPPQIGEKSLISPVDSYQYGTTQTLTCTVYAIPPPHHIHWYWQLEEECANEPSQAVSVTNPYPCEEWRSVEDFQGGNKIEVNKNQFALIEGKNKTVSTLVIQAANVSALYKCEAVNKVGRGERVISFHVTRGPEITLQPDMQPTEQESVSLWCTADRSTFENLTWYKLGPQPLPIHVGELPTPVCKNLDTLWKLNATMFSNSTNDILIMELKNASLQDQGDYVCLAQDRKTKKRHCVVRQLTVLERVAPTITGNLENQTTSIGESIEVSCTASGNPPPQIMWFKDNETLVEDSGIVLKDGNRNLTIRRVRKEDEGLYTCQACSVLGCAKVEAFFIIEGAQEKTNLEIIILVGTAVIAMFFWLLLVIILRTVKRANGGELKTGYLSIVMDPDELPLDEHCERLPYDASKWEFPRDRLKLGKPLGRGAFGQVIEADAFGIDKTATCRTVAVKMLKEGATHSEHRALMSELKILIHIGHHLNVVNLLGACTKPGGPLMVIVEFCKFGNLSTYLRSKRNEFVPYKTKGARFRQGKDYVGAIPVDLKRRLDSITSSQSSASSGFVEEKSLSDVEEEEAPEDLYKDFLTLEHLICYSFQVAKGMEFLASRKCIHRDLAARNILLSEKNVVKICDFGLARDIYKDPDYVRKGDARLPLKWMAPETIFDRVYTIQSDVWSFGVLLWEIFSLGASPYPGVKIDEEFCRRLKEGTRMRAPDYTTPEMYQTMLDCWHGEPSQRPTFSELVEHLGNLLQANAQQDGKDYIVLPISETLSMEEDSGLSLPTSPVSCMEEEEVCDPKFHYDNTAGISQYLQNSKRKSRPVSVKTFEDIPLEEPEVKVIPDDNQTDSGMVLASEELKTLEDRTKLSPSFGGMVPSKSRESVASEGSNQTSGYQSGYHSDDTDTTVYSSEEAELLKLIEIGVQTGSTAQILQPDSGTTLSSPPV
Another data set has as its target TGFbR2 (Homo sapiens, UniProt P37173). The data set can be described thus: Kinase assay (33P-ATP filter-binding), TGFbR2. Conditions: read-out: Kinase Selectivity TGFbR2. It is filed as biochemical. The method, then:
as §2

The target of a further data set is AMPK. As to the kind of experiment: Kinase assay (33P-ATP filter-binding), AMPK. Type of data set: biochemical. Conditions: read-out: Kinase Selectivity AMPK. The method, then:
as §2

In another data set the target is T2, BMPR2 (Homo sapiens, UniProt Q13873).
T2 sequence (Q13873 27-1038): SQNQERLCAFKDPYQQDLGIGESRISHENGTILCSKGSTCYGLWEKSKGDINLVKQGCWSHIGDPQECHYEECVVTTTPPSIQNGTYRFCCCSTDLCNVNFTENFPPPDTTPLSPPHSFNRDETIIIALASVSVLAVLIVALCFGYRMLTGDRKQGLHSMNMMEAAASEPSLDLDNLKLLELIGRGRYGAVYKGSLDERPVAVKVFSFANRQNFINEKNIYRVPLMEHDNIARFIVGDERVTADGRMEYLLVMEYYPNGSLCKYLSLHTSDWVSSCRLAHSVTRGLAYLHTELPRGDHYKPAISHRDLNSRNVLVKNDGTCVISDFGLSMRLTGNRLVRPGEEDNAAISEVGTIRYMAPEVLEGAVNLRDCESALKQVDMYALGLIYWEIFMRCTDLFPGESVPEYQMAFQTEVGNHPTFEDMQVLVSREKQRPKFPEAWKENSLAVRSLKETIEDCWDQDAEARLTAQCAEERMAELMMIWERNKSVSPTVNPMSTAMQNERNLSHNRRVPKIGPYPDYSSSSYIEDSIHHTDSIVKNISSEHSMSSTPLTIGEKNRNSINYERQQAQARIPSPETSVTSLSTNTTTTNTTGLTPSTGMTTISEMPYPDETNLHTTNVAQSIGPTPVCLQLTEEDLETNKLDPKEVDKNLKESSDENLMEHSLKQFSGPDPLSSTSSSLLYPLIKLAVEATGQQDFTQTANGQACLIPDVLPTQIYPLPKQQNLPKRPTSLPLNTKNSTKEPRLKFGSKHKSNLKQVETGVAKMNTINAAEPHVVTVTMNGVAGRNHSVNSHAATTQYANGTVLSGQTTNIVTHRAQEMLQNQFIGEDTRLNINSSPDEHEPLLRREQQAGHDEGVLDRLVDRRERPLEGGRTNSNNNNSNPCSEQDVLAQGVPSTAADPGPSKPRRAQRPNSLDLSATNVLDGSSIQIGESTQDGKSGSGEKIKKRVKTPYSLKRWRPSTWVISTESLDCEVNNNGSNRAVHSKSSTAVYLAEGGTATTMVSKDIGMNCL
The data set can be described thus: Kinase assay (33P-ATP filter-binding), BMPR2. Type of data set: biochemical. Conditions: read-out: Kinase Selectivity BMPR2. The method, then: as §2

The next data set concerns the target ALK1/ACVRL1 (Homo sapiens, UniProt P37023). The data set can be described thus: Kinase assay (33P-ATP filter-binding), ALK1. Type of data set: biochemical. Conditions: read-out: Kinase Selectivity ALK1/ACVRL1. The procedure, abridged:
as §1

Setting [4] is: CL-Hep, value in parentheses, read-out: Intrinsic Clearance Mouse (CL-Hep).
Setting [5] is: read-out: Intrinsic Clearance Mouse.
The mark [6] stands for this setting: CL-Hep, value in parentheses, read-out: Intrinsic Clearance Human (CL-Hep).
Setting [7] is: read-out: Intrinsic Clearance Human.

Molecules are shown by their SMILES.

Sequence of ALK6 (O00238 14-502): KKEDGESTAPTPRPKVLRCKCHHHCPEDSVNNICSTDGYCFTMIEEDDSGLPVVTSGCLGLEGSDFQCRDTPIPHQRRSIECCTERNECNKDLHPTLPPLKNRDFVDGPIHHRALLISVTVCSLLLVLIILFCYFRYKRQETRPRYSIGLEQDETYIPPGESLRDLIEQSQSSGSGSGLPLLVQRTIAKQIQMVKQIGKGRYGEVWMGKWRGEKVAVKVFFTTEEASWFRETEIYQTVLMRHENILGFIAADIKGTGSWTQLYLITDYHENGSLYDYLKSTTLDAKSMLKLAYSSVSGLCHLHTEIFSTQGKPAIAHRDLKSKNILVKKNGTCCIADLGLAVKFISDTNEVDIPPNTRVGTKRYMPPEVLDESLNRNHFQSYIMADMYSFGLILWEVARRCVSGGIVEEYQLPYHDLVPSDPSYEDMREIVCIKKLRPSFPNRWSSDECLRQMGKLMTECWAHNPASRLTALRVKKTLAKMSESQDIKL
Sequence of TGFbR2 (P37173 23-567, species assumed): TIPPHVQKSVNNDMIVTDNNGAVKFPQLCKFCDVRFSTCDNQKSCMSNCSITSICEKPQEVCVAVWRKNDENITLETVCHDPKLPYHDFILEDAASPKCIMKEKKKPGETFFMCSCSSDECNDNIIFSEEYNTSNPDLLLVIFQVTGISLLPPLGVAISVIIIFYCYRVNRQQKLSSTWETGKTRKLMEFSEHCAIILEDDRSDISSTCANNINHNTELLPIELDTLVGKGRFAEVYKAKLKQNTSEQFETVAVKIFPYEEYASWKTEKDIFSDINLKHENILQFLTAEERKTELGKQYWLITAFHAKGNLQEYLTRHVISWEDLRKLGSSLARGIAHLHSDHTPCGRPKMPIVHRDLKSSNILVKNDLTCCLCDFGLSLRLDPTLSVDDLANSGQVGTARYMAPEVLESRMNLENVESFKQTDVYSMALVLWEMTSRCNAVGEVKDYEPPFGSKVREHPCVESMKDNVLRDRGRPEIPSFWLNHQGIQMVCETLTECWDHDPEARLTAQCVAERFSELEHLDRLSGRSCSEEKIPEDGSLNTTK
Sequence of ALK3/BMPR1A (P36894 24-532): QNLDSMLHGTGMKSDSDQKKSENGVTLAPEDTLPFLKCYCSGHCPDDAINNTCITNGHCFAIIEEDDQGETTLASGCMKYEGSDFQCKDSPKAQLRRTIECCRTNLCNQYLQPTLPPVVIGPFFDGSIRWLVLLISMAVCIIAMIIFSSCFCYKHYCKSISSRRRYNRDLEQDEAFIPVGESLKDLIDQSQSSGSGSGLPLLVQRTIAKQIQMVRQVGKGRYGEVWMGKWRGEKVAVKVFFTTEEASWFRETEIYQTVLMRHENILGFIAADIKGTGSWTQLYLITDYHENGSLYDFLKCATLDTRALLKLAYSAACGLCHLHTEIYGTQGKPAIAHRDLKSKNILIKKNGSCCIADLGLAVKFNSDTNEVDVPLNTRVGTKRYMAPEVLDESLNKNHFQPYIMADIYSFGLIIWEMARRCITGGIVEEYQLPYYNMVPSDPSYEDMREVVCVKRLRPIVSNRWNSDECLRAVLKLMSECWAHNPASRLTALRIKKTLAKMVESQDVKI
Sequence of ALK1/ACVRL1 (P37023 22-503): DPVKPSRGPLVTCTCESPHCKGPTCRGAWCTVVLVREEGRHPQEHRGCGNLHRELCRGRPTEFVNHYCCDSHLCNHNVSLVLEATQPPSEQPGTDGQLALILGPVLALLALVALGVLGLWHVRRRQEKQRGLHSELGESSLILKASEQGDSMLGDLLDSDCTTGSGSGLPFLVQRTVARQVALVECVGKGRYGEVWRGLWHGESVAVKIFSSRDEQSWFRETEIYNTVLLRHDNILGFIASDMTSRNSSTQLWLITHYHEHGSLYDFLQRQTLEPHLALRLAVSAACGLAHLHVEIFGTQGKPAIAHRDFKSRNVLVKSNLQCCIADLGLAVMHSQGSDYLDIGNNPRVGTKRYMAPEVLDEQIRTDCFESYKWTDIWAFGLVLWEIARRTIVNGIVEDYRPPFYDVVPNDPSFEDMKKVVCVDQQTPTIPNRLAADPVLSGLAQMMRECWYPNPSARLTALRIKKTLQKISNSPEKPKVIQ

For the compound `Cc1cc(-c2cnc3cc(-c4ccc(C5COC6(CCNCC6)CN5)cc4)ccn23)c2cc(F)cc(F)c2n1` (centres unmarked) [Compound 16], the IC50 is less than 5.1 nM at ALK3/BMPR1A; 1140 nM on ALK5; 87.7 nM in data set [3]; 188 nM on ALK6; 39.3 µM on KDR; 620 nM on TGFbR2. The results for the IC50 on AMPK, at BMPR2 and on ALK1/ACVRL1 were 39.1 µM, greater than 100 µM and 152 nM, respectively. Besides, the CLint scaled in [1] (setting [4]) was less than 32.9 mL/min/kg; in [1] (setting [5]), less than 49.5 mL/min/kg; in data set [2] (setting [6]), less than 10.7 mL/min/kg; in data set [2] (setting [7]) it was less than 23.1 mL/min/kg.

As for `Cc1cc(-c2cnc3cc(-c4ccc(C5COCC(C)N5)cc4)ccn23)c2cc(F)cc(F)c2n1` (centres unmarked) [Compound 23], the IC50 was less than 5.1 nM on ALK3/BMPR1A; 354 nM at ALK5; 369 nM at ALK6; 47.4 µM on KDR; 560 nM at TGFbR2; greater than 100 µM at AMPK. The IC50 is greater than 100 µM on BMPR2 and 42.8 nM at ALK1/ACVRL1. Besides, the CLint scaled in [1] (setting [4]) was determined as 42.9 mL/min/kg; in [1] (setting [5]), 82.2 mL/min/kg; in data set [2] (setting [6]) it was 17.5 mL/min/kg; in data set [2] (setting [7]), 139 mL/min/kg.

With `Cc1cc(-c2cnc3cc(-c4ccc(C5COC6(CCNC6)CN5)cc4)ccn23)c2cc(F)cc(F)c2n1` (centres unmarked) [Compound 27], the IC50 at ALK3/BMPR1A is 13.5 nM; at ALK5, 3290 nM; in data set [3], 248 nM; on ALK6, 429 nM; on KDR it was greater than 100 µM; on TGFbR2, 1870 nM. Moreover, the IC50 on AMPK is 18.9 µM; at BMPR2, greater than 100 µM; on ALK1/ACVRL1, 907 nM. For the same compound, the CLint scaled in data set [1] (setting [4]) is less than 32.9 mL/min/kg; in data set [1] (setting [5]) it was less than 49.5 mL/min/kg; in data set [2] (setting [6]) it was less than 10.7 mL/min/kg; in data set [2] (setting [7]) it was less than 23.1 mL/min/kg.

For the compound `c1cnc2nccc(-c3cnc4cc(-c5ccc(C6CNCCN6)cc5)ccn34)c2c1` (centres unmarked) [Compound 32], the IC50 on ALK3/BMPR1A is less than 5.1 nM; on ALK5 it was 310 nM; in [3], 13.5 nM; at ALK6, 54.5 nM; at KDR, 9.35 µM; at TGFbR2 it was 4590 nM. Also, the IC50 at AMPK is 20 µM; at BMPR2 it was 54.4 µM; on ALK1/ACVRL1 it was 197 nM. Besides, the CLint scaled in data set [1] (setting [4]) is less than 31.9 mL/min/kg; in data set [1] (setting [5]) it was less than 49.5 mL/min/kg; in data set [2] (setting [6]), less than 11 mL/min/kg; in data set [2] (setting [7]), less than 23.1 mL/min/kg.

Regarding `c1cc(-c2cnc3cc(-c4ccc(C5CNCCN5)cc4)ccn23)c2cccnc2c1` (centres unmarked) [Compound 33], the IC50 at ALK3/BMPR1A was 82.7 nM; at ALK5, 1140 nM; in [3] it was 87.7 nM; at ALK6, 188 nM; on KDR, 39.3 µM; on TGFbR2 it was 620 nM. The IC50 at AMPK is 39.1 µM; at BMPR2 it was greater than 100 µM; on ALK1/ACVRL1, 61.3 nM. Besides, the CLint scaled was less than 31.9 mL/min/kg in [1] (setting [4]), less than 49.5 mL/min/kg in data set [1] (setting [5]), less than 11 mL/min/kg in data set [2] (setting [6]) and less than 23.1 mL/min/kg in data set [2] (setting [7]).

As to `O=C1CNC(=O)C(c2ccc(-c3ccn4c(-c5cccc6ncccc56)cnc4c3)cc2)N1` (centres unmarked) [Compound 36], the IC50 on ALK3/BMPR1A is 295 nM; on ALK5, 717 nM; in data set [3], 29.6 nM; at ALK6, 188 nM; on KDR it was 36.9 µM; on TGFbR2, 498 nM. Moreover, the IC50 on AMPK was 11.5 µM; on BMPR2, greater than 100 µM; on ALK1/ACVRL1 it was 84.9 nM.

`NS(=O)(=O)c1ccc(-c2cnc3cc(-c4ccc(C5CNCCN5)cc4)ccn23)c2ccccc12` (centres unmarked) [Compound 37]: the IC50 at ALK3/BMPR1A came out at 20300 nM; at ALK5, 456 nM; in data set [3], 34.9 nM; at ALK6, 231 nM; at KDR, 31.4 µM; on TGFbR2, 2680 nM. Further, the values for the IC50 on AMPK, on BMPR2 and on ALK1/ACVRL1 were 9.32 µM, greater than 100 µM and 723 nM, respectively. Besides, the CLint scaled in [1] (setting [4]) is less than 31.9 mL/min/kg; in [1] (setting [5]), less than 49.5 mL/min/kg; in [2] (setting [6]), less than 11 mL/min/kg; in data set [2] (setting [7]) it was less than 23.1 mL/min/kg.

The values are drawn from US10745400B2, “Inhibition of BMP signaling, compounds, compositions and uses thereof” (Vanderbilt University, priority 2018, dated 2020).
